For this test, the target named is T1, HIV protease (Human immunodeficiency virus type 1 group M subtype B, UniProt P04585).
T1 construct: The HIV protease is composed of 99 amino acids and evidently excises itself out of the pol polyprotein
Put plainly: HIV protease enzyme test (HPLC cleavage of heptapeptide substrate H-Ser-Phe-Asn-Phe-Opr-Gln-Ile-OH). In kind it is biochemical. Conditions: inhibitor concentration at which the cleavage rate is halved, 37° C., 2 hours. The text has this: In particular, they inhibit HIV protease. Their enzyme-inhibitory effect, which is in the milli- to subnano-molar range, can be determined as follows.
The substrates of the HIV protease which have been employed thus far include the heptapeptide: H-Ser-Phe-Asn-Phe-Pro-Gln-Ile-OH (SEQ ID NO. 1) (P. L. Darke et al., Biophys. Res. Commun. 156 (1988) 297-303). When this peptide is used as the substrate, the HIV protease cleaves it between the second Phe and the Pro.
General instructions for testing inhibitors of the HIV proteases:
2 mg of H-Ser-Phe-Asn-Phe-Opr-Gln-Ile-OH (H-Opr-OH=5-oxaproline) (SEQ ID NO. 1) are dissolved in 1 ml of MGTE 15 buffer (use of ultrasonication if required) and this solution is subsequently filtered through a sterilizing filter (0.45 μm).
2.5 times the necessary quantity of inhibitor to give the desired molarity per ml of solution is weighed out and dissolved in DMSO (10% of the final volume). This solution is diluted with MGTE 15 buffer to the final volume and then filtered through a sterilizing filter (0.45 μm).
5 μl of the HIV protease solution are diluted with MGTE25 buffer as required.
In each case, 10 μl of the substrate solution are pipetted into a test tube (16×100) having a screw cap. 10 μl of MGTE 15 buffer, which contains 10% DMSO, are pipetted in for the blank experiment. 10 μl of the inihibitor solutions are added to each of the remaining test tubes. The tubes are incubated at 37° C. for 5-10 minutes and 5 μl of the protease solution are then added to each sample. Following reaction at 37° C. for 2 hours, 10 or 20 μl (depending on the sensitivity of the HPLC equipment) are pipetted out from each sample, added to microvials and diluted with 120 μl of the HPLC eluant.
e) Conditions for the HPLC Analysis
Under the conditions chosen for this experiment, the heptapeptide is separated from the N-terminal tetrapeptide resulting from the enzymic cleavage. The % content of tetrapeptide peak related to the sum of tetrapeptide+heptapeptide gives the cleavage rate. The following IC50 values indicate the inhibitor concentrations at which the cleavage rate is halved: […]

5 molecules from patent US5663139A, “Inhibitors of retroviral proteases” (Hoechst Aktiengesellschaft, priority 1992, dated 1997) can be followed below.

Molecules are shown by their SMILES. Structures can show the parent of a compound that is named as a salt.

As for `CCOP(=O)(C(Cc1ccccc1)NC(=O)[C@@H](NC(=O)OCc1ccccc1)C(C)C)C(O)C(Cc1ccccc1)NC(=O)[C@@H](NC(=O)OCc1ccccc1)C(C)C` (some centres unmarked) [Example 3], the midpoint of inhibition, the IC50, lay at 70 nM.

For `CC(C)[C@H](NC(=O)OCc1ccccc1)C(=O)NC(Cc1ccccc1)C(O)P(=O)(O)C(Cc1ccccc1)NC(=O)[C@@H](NC(=O)OCc1ccccc1)C(C)C` (stereo partly drawn) [Example 4, 1-{2-[(Benzyloxycarbonyl-L-valyl)amino]-1-hydroxy-3-phenylpropyl},1-{-[(benzyloxycarbonyl-L-valyl)amino]-2-phenylethyl}phosphinic acid], the half-inhibitory concentration (IC50) – broadly, the concentration at which inhibition is half-maximal – stood at 1.3 nM. This IC50 lies about 54-fold lower than the previous one.

`CCOP(=O)(C(Cc1ccccc1)NC(=O)[C@@H](NC(=O)[C@@H](N)Cc1cccc2ccccc12)C(C)C)C(O)C(Cc1ccccc1)NC(=O)[C@@H](NC(=O)[C@@H](N)Cc1cccc2ccccc12)C(C)C` (stereo partly drawn) [Example 7, Ethyl 1-{2-[(L-naphthylalanyl-L-valyl)amino]-1-hydroxy-3-phenylpropyl},1-{1-[(L-naphthylalanyl-L-valyl)amino]-2-phenylethyl}phosphinate bistrifluoroacetate] yielded an IC50 of 15 nM.

In turn, `CC(C)[C@H](NC(=O)[C@@H](N)Cc1cccc2ccccc12)C(=O)NC(Cc1ccccc1)C(O)P(=O)(O)C(Cc1ccccc1)NC(=O)[C@@H](NC(=O)[C@@H](N)Cc1cccc2ccccc12)C(C)C` (stereo partly drawn) [Example 8, 1-{2-[(L-Naphthylalanyl-L-valyl)amino]-1-hydroxy-3-phenylpropyl},1-{1-[(L-naphthylalanyl-L-valyl)amino]-2-phenylethyl}phosphinic acid dihydrobromide] came in with an IC50 of 0.5 nM. This IC50 is about 30-fold lower than that of the molecule before.

For `CC(C)[C@H](NC(=O)C(Cc1cccc2ccccc12)CS(=O)(=O)C(C)(C)C)C(=O)NC(Cc1ccccc1)C(O)P(=O)(O)C(Cc1ccccc1)NC(=O)[C@@H](NC(=O)C(Cc1cccc2ccccc12)CS(=O)(=O)C(C)(C)C)C(C)C` (stereo partly drawn) [Example 10, 1-{2-[((2S(tert-Butylsulfonylmethyl)-3-(1-naphthyl)-propionyl)-L-valyl)amino]-1-hydroxy-3-phenylpropyl},1-{1-[((2S(tert-butylsulfonylmethyl)-3-(1-naphthyl)propionyl)-L-valyl)amino]-2-phenylethyl}phosphinic acid], half-maximal inhibition (IC50) was put at 4.2 nM. This IC50 is about 8.4-fold higher than that of the molecule before.
